Measured values taken from US11655244B2, “Carbazole compounds and methods of use thereof” (GSNO Therapeutics, Inc, priority 2017, dated 2023).
Like-named read-outs stand apart in the source and are kept apart here.

Key:
[1] = target: T1, GSNOR enzyme (Homo sapiens, UniProt P11766); assay: GSNOR inhibition assay (rate of NADH consumption, 340 nm absorbance); type: biochemical
Method: The following compounds were also prepared based on the methods described herein, using the appropriate starting materials. Table 2a and Table 2b also provides the % GSNOR inhibition at 20 μM of compounds described herein. […] The buffer was 100 mM phosphate buffer (pH 7.4.) The rate of NADH consumption for each well was determined by ultraviolet spectroscopy. Plates were read on a Molecular Devices Spectra Max UV/Visible Spectrophotometer/plate reader and the change in 340 nm absorbance at 25° C. was recorded for each well at 10 sec intervals over the duration of the recording period (2˜5 minutes). The rate was measured from the linear portion of the curve. Final test compound concentration was 20 μM. The mean % inhibition from 3 test compound wells and 5 control wells was measured as the percentage of the mean no compound+enzyme−the mean no enzyme, no compound control.

[2] = tested on: IL-6; assay: LPS/cytokine assay (mouse inflammation assay), IL-6; type: in vivo, CD-1 male mice
Method: Table 2b also includes additional biological data of compounds described herein. The LPS/cytokine Assay was carried out in CD-1 male mice. The assay measured the level of various cytokines, including IL-6, IL-17, and IL-23, after induction by bacterial liposaccharide (LPS). Compounds were dosed by IP or IV routes of administration at varying times before and after LPS and the cytokine concentrations were measured at varying times, typically 6 hrs, after LPS by standard methods using ELISA kits.
BIOLOGICAL TESTING: Compounds 10 and 17 from Table 1 were tested in a mouse inflammation assay. Briefly, CD-1 mice were dosed with compound, 12 hrs before injecting mice I.P. with the potent cytokine inducer, bacterial lipopolysaccharide (LPS). The mice were euthanized 6 hrs after the LPS was injected and their serum prepared by standard methods. The concentration of IL-6 in the serum of each experimental animal was measured using an IL-6 ELISA kit from Enzo. The compounds tested were active.
This LPS/cytokine assay was carried out in healthy mice and measured the level of cytokine IL-6, IL-17, and 23 induction by LPS. Compounds are dosed (either orally (“p.o.”) or intravenously (“i.v.”) at varying times before and after LPS, and the cytokines are measured at varying times after LPS. The effect of the tested compounds (Table 5) on IL-6 release is shown in FIG. 7. The effect of the tested compounds (Table 6) on IL-17 an IL-23 release is shown in FIG. 11 and FIG. 12, respectively.

[3] = target: T1, GSNOR enzyme; assay: GSNOR inhibition assay (rate of NADH consumption, 340 nm absorbance); type: biochemical; conditions: Table 2b; read-out: IC50 Micromolar
[4] = tested on: Bleomycin-induced idiopathic pulmonary fibrosis model in male C57BL/6 mice; assay: Bleomycin-induced idiopathic pulmonary fibrosis model; type: in vivo; conditions: 100 mg/kg, p.o., b.i.d., from day 14 to 28
Method: Compound 17 was made-up fresh every 4 days. A required amount of the test compound was weighed in a glass vial and the purity factor was calculated. A stock solution of 1 mg/ml (10 mg/kg) was made in distilled water (pH 8) and the subsequent 3 and 1 mg/kg doses (concentrations) were obtained by serial dilution of the 1 mg/ml stock solution. A clear and transparent solution was observed. Animals were dosed with Compound 17 at 1 mg/kg, 3 mg/kg and 10 mg/kg, i.p (intraperitoneal), once daily from day 14 to 28.
Pirfenidone was weighed in a glass vial and suspended in 0.5% methyl cellulose to obtain a 10 mg/ml formulation. A clear homogenous suspension was observed. Animals were dosed with Pirfenidone at 100 mg/kg, p.o., b.i.d., from day 14 to 28.

T1 sequence (P11766 whole entry): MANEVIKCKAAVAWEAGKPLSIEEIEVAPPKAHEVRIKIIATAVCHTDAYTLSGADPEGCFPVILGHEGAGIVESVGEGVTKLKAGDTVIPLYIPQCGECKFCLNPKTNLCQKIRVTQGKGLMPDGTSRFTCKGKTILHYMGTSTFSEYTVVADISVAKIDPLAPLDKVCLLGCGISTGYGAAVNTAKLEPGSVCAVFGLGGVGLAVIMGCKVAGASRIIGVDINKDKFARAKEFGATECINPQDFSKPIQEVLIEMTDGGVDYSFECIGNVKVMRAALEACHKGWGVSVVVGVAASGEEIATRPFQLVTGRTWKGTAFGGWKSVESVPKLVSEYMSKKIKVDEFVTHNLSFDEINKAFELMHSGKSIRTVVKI

Compound | inhibition at 20 µM ([1]; Table 2a, test compound 20 μM, pH 7.4, 25° C., read-out: % Inhibit. at 20 μM) [%] | inhibition at 20 µM ([1]; Table 2b, test compound 20 uM, read-out: % GSNOR Inhibition at 20 uM) [%] | LPS/IL6 Lowest tested active ([2]; CD-1 male mice, IP or IV, cytokine typically 6 hrs after LPS) [mg/kg] | IL-6 in serum after LPS (mouse inflammation assay) ([2]; dosed 12 hrs before LPS I.P., serum 6 hrs after LPS) | IC50 [3] [nM] | pulmonary fibrosis (Ashcroft score and percentage collagen proportionate area) vs disease control [4]
NC(=O)CCn1c2ccc(-n3ccnc3)cc2c2ccc(C(=O)O)cc21 [Compound 10, 9-(3-amino-3-oxopropyl)-6-(1H-imidazo-1-yl)-9H-carbazole-2-carboxylic acid] | 85 | 75 | 30 | active | < 1000 | –
Cc1ccc(=O)n(-c2ccccc2)c1 [Pirfenidone, reference compound] | – | – | – | – | – | notable mitigation of pulmonary fibrosis
